Where two headings read alike, the source gives them in different places. Marks after values point to notes of the source that are not given here.
Experiments:
Assay type in all cases: in vivo
cats = conditions: anesthetized cats; single i.v.; 100 mg/kg (title)
rats = assay: Forced swimming with freely rotating wheels by Nomura; conditions: rat pups
Experimental: The antidepressant effect of Phenotropil was studied in adult rats (185-218 g) and rat pups of 28-35 days of age (85-110 g). The test drugs were injected intraperitoneally in the first case and intragastrically in the second case 40 min before the tests. The methods of behavioral despair during forced swimming (Porsolt et al., 1978) and forced swimming with freely rotating wheels (Nomura et al., 1982) were used.
In the study of depression by Porsolt, no significant differences between the effective doses were found (Table 10), while according to the method of Nomura this difference is statistically significant. At a dose of 100 mg/kg, the efficacy of Phenotropil as compared to the control, was 59.0%. At a dose of 200 mg/kg it was +30.0% in comparison with the control group (Table 10.1). […] The effect of Phenotropil was investigated by the method of Nomura also in mature outbred rats (185-218 g).

[1] = Distribution by internal organs after oral administration (GLC); conditions: rats, 100 mg/kg orally; for concentration at 0.25 h / concentration at 0.5 h / concentration at 1 h / concentration at 1.5 h / concentration at 2 h / concentration at 4 h / concentration at 6 h / concentration at 8 h: both sexes, outbred white, rat, po; for concentration at 0.5 h: 0.50 h; for concentration at 1.5 h: 1.50 h
Experimental: The degree of tropism of the compound in various organs by quantitative content varies and is arranged in descending order as follows: liver, kidneys, heart, and brain. Rapid penetration into the brain confirms the good kinetic ability to penetrate through the blood-brain barrier. In 15 minutes, its presence is detected in the brain, heart, liver and kidneys. In the brain, liver and kidneys, the maximum concentration is achieved in an hour, and 6 hours after oral administration the compound is not detectable any more. […] The maximum concentration of Phenotropil in the myocardium is detected later than in the brain, but it is eliminated from the myocardium also two hours later. In the liver, the maximum concentration is found after an hour and then the concentration is gradually decreasing. One hour after administration, the concentration in the kidneys reaches the maximum, with a gradual decrease further on.

[2] = Body weight in obese rats, 1 month intragastric course; conditions: for Body weight (%): change vs control (dist. water) = 100
Experimental: Investigation of the effect of Phenotropil on body weight at course intragastric administration for 1 month was performed at doses of 25, 50, 100, 200 and 300 mg/kg/day in white outbred rats of both sexes with obvious signs of obesity (380-430 g) without changes in diet and behavior. Each animal was placed in a standard single cell. The body weight, the amount of water and food consumed per day were recorded.

MDA = MDA (lipid peroxidation) in saliva after topical course; conditions: human saliva after topical course treatment, 100 mg per 100 ml water
Text: Studies of the effects of Phenotropil on condition of paradontium, enamel and dentin with topic application involved men and women (45-54 years) diagnosed with periodontitis, parodontosis and caries. Enrollment of groups by separate indicators in this age failed. In the vast majority of subjects, the diseases were combined. The gender ratio in groups was: 30.0% men and 70.0% women, the ratio of smokers to non-smokers 60:40, the number of female smokers was higher than male smokers by 35.0%. All patients received every three days the required amount of 0.1%, 0.2% or 0.3% solution of Phenotropil or placebo. The solutions were applied daily as dental trays (for 30 sec.) in the morning and evening at 30 ml per application for 30 days. Food and drinks intake, including water, were not recommended for 2 hours after the procedure. All patients underwent a dental check-up and standard hygienic treatment with removing plaque and dental scale and lavaging the gingival pockets with 1% Phenotropil solution. For each subject, the studied parameters were recorded; the aggregate integral indicator of the general periodontal condition of enamel and dentin was calculated, in the negative scores. The examinations were conducted once a week throughout the period of monotherapy. […]

[3] = brain, read-out: Contents of Phenotropil in brain
[4] = heart, read-out: Contents of Phenotropil in heart
[5] = kidney, read-out: Contents of Phenotropil in kidney
[6] = liver, read-out: Contents of Phenotropil in liver

## NC(=O)CN1CC(c2ccccc2)CC1=O (racemic) [Compound 1, (RS)-2-(2-oxo-4-phenylpyrrolidine-1-yl)acetamide]
cats
  CCA blood flow (1-2 min) vs background: +26.0%
  SBP (1-2 min) vs background: −24.0%
  SBP (at 4 min) vs background: +14%
  VPR (at 5 min) vs background: −46.0%
rats; 100 mg/kg
  Number of revolutions: 175.4 ± 22.98
rats; 200 mg/kg
  Number of revolutions: 143.4 ± 33.14
[1]; [3]
  concentration at 0.25 h: 1600 ± 200 ng/g
  concentration at 0.5 h: 2000 ± 300 ng/g
  concentration at 1 h: 6400 ± 800 ng/g
  concentration at 1.5 h: 4000 ± 600 ng/g
  concentration at 2 h: 1200 ± 300 ng/g
  concentration at 4 h: 400 ± 200 ng/g
[1]; [4]
  concentration at 0.25 h: 3700 ± 600 ng/g
  concentration at 0.5 h: 7900 ± 900 ng/g
  concentration at 1 h: 10100 ± 1000 ng/g
  concentration at 1.5 h: 14300 ± 1300 ng/g
  concentration at 2 h: 12600 ± 1200 ng/g
  concentration at 4 h: 8400 ± 1000 ng/g
  concentration at 6 h: 4400 ± 800 ng/g
[1]; [5]
  concentration at 0.25 h: 33200 ± 3400 ng/g
  concentration at 0.5 h: 37500 ± 4000 ng/g
  concentration at 1 h: 55700 ± 5800 ng/g
  concentration at 1.5 h: 50400 ± 6000 ng/g
  concentration at 2 h: 37200 ± 4100 ng/g
  concentration at 4 h: 28000 ± 3200 ng/g
  concentration at 6 h: 16000 ± 2100 ng/g
  concentration at 8 h: 10100 ± 1300 ng/g
[1]; [6]
  concentration at 0.25 h: 25600 ± 2400 ng/g
  concentration at 0.5 h: 30100 ± 4300 ng/g
  concentration at 1 h: 75800 ± 8200 ng/g
  concentration at 1.5 h: 67700 ± 7100 ng/g
  concentration at 2 h: 59600 ± 5400 ng/g
  concentration at 4 h: 30200 ± 3400 ng/g
  concentration at 6 h: 17700 ± 2100 ng/g
  concentration at 8 h: 11400 ± 1600 ng/g
[1]
  time after which compound is not detectable (brain, liver and kidneys as printed): 6 h
  time of complete elimination from the heart: 8 h
  time of first detection in brain, heart, liver and kidneys: 15 min
  time of maximum concentration in brain, liver and kidneys: in an hour
  time of maximum concentration in the heart: 1 hour 50 minutes
[2]; 25 mg/kg
  Body weight (%): −14.0%
[2]; 25 mg/kg/day i.g. 1 month
  reduction of body weight relative to control: 14%
[2]; 50 mg/kg
  Body weight (%): −25.0 * %
[2]; 50 mg/kg/day i.g. 1 month
  reduction of body weight relative to control: 25%
[2]; 100 mg/kg
  Body weight (%): −33.3 * %
[2]; 100 mg/kg/day i.g. 1 month
  reduction of body weight relative to control: 33.3%
[2]; 200 mg/kg
  Body weight (%): −35.0 * %
[2]; 200 mg/kg/day i.g. 1 month
  reduction of body weight relative to control: 35%
[2]; 300 mg/kg
  Body weight (%): −32.0 * %
[2]; 300 mg/kg/day i.g. 1 month
  reduction of body weight relative to control: 32%
MDA
  MDA content: 0.026 ± 0.0415 nmol/L
